Results taken from patent US11167007B2, “FOXM1 modulators and uses thereof” (City of Hope, priority 2016, dated 2021).

What was measured:
[1] = biological target: T1, AR with a 65 glutamine tract (disease associated) (Homo sapiens, UniProt P10275, INS80QQQQQQQQQQQQQQQQQQQQQQQQQQQQQQQQQQQQQQQQQQ); experiment: Luciferase reporter assay in HEK293 cells transfected with ARQ65; assay type: cell-based; settings: HEK293, AR 65 glutamines, FIG. 2C
T1 construct: expressed in transfected cells; host or cells: HEK293
T1 sequence (P10275 with tags, fused parts or gaps with the stated changes): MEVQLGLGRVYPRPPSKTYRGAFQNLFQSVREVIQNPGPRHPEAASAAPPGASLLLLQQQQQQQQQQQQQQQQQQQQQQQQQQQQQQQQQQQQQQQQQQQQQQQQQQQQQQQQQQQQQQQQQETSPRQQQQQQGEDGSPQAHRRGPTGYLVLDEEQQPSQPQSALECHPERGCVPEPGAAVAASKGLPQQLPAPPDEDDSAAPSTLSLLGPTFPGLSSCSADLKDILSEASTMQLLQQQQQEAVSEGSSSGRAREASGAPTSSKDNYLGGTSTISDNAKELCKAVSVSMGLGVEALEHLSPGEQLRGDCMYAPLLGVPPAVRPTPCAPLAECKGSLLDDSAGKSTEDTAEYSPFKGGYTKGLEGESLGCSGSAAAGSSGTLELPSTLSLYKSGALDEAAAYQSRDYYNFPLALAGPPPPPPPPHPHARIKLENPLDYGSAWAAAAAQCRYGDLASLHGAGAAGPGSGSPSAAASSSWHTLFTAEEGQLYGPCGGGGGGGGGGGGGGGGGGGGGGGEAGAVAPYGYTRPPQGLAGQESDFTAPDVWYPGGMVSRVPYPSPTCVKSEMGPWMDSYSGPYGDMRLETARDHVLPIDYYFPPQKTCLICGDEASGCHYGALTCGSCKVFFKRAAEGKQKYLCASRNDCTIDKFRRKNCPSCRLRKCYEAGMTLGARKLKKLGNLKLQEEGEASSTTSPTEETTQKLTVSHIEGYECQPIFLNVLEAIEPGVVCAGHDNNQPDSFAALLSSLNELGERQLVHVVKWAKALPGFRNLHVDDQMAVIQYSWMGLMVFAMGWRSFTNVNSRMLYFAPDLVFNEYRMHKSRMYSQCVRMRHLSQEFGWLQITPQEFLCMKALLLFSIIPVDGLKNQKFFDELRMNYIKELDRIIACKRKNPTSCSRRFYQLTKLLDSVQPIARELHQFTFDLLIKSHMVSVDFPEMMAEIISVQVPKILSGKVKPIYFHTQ
Source text: Luciferase Reporter Assay. Cells were transfected using Lipofectamine Plus (Invitrogen) with a normalization plasmid (pRL-SV40, Promega) and an androgen responsive plasmid (MMTV-luciferase or PSA-luciferase) as described in Jones et al, ACS Chem Biol, 3(7):412-8 (2008), and, where indicated, with an shRNA plasmid targeting FOXM1 (adapted for mouse FOXM1 sequence targeting) a scrambled control shRNA plasmid, or ARQ24 or ARQ65 plasmids. Christensen et al, PLoS One, 8(1):e54556 (2013). The following day, cells and drugs were distributed to 96-well plates. 24 hours later, luciferase activity was assessed by a dual luciferase assay kit (Promega) on the Tecan plate reader. Samples were run in quadruplicates and a Student's t test was performed to determine significance, where p<0.05 was considered significant.
SBMA is caused by the activity of polyglutamine-expanded AR, and experiments were conducted to investigate the effects of thiostrepton against polyglutamine-expanded AR. AR-negative HEK293 cells were transfected with plasmids encoding AR with a 24 glutamine tract (normal) or with a 65 glutamine tract (disease associated). The polyglutamine-expanded AR was less transcriptionally active than the normal AR, as has been previously documented for such constructs. Kazemi-Esfarjani et al, Hum Mol Genet, 4:523-527 (1995).

FOXM1 = experiment: Immunohistochemistry of FOXM1 in spinal cord; assay type: in vivo, rat; settings: rats, FIG. 5C
Description: Animals and Drugs. This study was carried out in strict accordance with the recommendations in the Guide for the Care and Use of Laboratory Animals of the National Institutes of Health. All experiments were performed under the IUCAC approval of City of Hope. Animals were purchased from Jackson Laboratory (Bar Harbor, Main). For the pilot pharmacokinetic experiment, nine male Sprague Dawley rats (n=3) were administered 1, 10, or 100 mg/kg intraperitoneal injections thrice per week for four weeks. One hour following the final dose, blood and spinal fluid were collected and analyzed by mass spectrometry. […] Following a treatment period of 7 days, rats were euthanized and organs harvested, weighed and processed for quantitative RT-PCR.
Immunohistochemistry. […] A veterinary pathologist, blinded to the identity of the treatment groups, scored the spinal cord sections based on the intensity of FOXM1 expression, which was typically uniform across the entirety of a section, creating a scale ranging from 0-2 in both white matter and grey matter. […] As a secondary quantification method, Image J was used to determine pixel density of FOXM1 staining. […]
Intact and castrate cohorts were included as controls. […] As a secondary quantification method, Image J was used to determine pixel density of FOXM1 staining. […]

C=C(NC(=O)C(=C)NC(=O)c1csc(C2=N[C@@H]3c4csc(n4)[C@H]4NC(=O)c5csc(n5)[C@H]([C@](C)(O)[C@@H](C)O)NC(=O)[C@H]5CSC(=N5)/C(=C/C)NC(=O)[C@H]([C@@H](C)O)NC(=O)c5csc(n5)[C@]3(CC2)NC(=O)[C@H](C)NC(=O)C(=C)NC(=O)[C@H](C)NC(=O)[C@H]([C@@H](C)CC)N[C@@H]2C=Cc3c([C@H](C)O)cc(nc3[C@H]2O)C(=O)O[C@@H]4C)n1)C(N)=O [thiostrepton]
inhibition of polyglutamine-expanded AR activity (luciferase) [1]: inhibited
expression of FOXM1 in the spinal cord, scored by veterinary pathologist (FOXM1; 100 mg/kg per day, four weeks, IP osmotic pumps): significantly reduced
FOXM1 staining intensity, Image J pixel density (FOXM1; spinal cord, relative to untreated): lower intensity
